Data reported in US6680282B2 (priority 1997, dated 2004).

Tests used:
Pyricularia oryzae = assay: whole plant or invertebrate; assay type: in vivo; details: for rank (control effect, protective value from lesion number): 100 ppm spray, rice seedling (Jikkoku) 4-leaf stage, lesion number on fourth leaf 6 days after inoculation; for pest or weed control at 100 ppm: Pyricularia oryzae, foliar, 144 h, read-out: rank (control effect, protective value from lesion number)
Sphaerotheca fuliginea = assay: Test for control effect against powdery mildew of Cucurbitaceae (spray on cucumber seedlings); assay type: in vivo; details: 200 ppm spray, cucumber first foliage leaf, 10 days after inoculation
Source text: Test for Control Effect Against Powdery Mildew of Cucurbitaceae
A spray liquid comprising a test compound whose concentration was adjusted to be 200 ppm by dilution with water was sprayed to a cucumber grown in a vinyl pot of 3 cm in diameter when its first foliage leaf was developed. The air-dried cucumber seedling was inoculated with a conidium suspension of Sphaerotheca fuliginea. Thereafter, the cucumber seedling was transferred in an air-conditioned greenhouse. 10 Days after the inoculation, the disease severity was observed. The protective value was calculated by comparing the disease severity in a treated area with that in an untreated area. Then, control effect was ranked according to the following criterion.
B; protective value 50 to 79%

| SMILES | rank (control effect, protective value from lesion number) (Pyricularia oryzae) | rank (control effect, protective value from disease severity) (Sphaerotheca fuliginea) | pest or weed control at 100 ppm (Pyricularia oryzae) [%] |
| --- | --- | --- | --- |
| CCC(C)c1ccc2nc(C)c(C)c(OC(=O)C3CC3)c2c1 (stereo not shown) [compound 57] | A (protective value ≧80%) | – | – |
| Cc1nc2c(C)cc(Br)cc2c(O)c1C [compound 190] | B (protective value 50 to 79%) | – | – |
| CC(=O)Oc1c(C)c(C)nc2ccc(Br)cc12 [compound 185] | B (protective value 50 to 79%) | A (protective value ≧80%) | – |
| CCCCc1ccc2nc(CCCC)c(C)c(OC(C)=O)c2c1 [compound 49] | A (protective value ≧80%) | – | – |
| CCCCc1ccc2nc(CCC)c(C)c(OC(C)=O)c2c1 [compound 48] | A (protective value ≧80%) | – | – |
| CCC(C)c1cc(C)c2nc(C)c(C)c(OC(C)=O)c2c1 (stereo not shown) [Compound No. 206, 4-acetoxy-6-s-butyl-2,3,8-trimethylquinoline] | – | – | > 80 |
| CC(=O)Oc1c(C)c(C)nc2c(C)cc(F)cc12 [compound 198] | B (protective value 50 to 79%) | – | – |
| CCCCc1cc(Br)c2nc(C)c(C)c(O)c2c1 [compound 186] | B (protective value 50 to 79%) | – | – |
| CCCCCCc1ccc2nc(C)c(C)c(OC(C)=O)c2c1 [Compound No. 108] | A (protective value ≧80%) | – | – |
| CCC(C)c1ccc2nc(C)c(C)c(OC(=O)N(C)C)c2c1 (stereo not shown) [compound 71] | – | A (protective value ≧80%) | – |
| CCC(C)c1ccc2nc(C)c(C)c(OC(=O)CC(C)C)c2c1 (stereo not shown) [compound 176] | – | A (protective value ≧80%) | – |
| CCC(C)c1ccc2nc(C)c(C)c(OC(=O)c3ccccc3)c2c1 (stereo not shown) [compound 61] | A (protective value ≧80%) | B (protective value 50 to 79%) | – |
| C=CCC(=O)Oc1c(C)c(C)nc2ccc(C(C)CC)cc12 (stereo not shown) [compound 175] | – | A (protective value ≧80%) | – |
| CCC(=O)Oc1c(C)c(C)nc2ccc(C(C)CC)cc12 (stereo not shown) [compound 56] | A (protective value ≧80%) | A (protective value ≧80%) | – |
| CC(=O)Oc1c(C)c(C)nc2ccc(C(C)(C)C)cc12 [compound 84] | A (protective value ≧80%) | – | – |
| CCCCCc1ccc2nc(C)c(C)c(OC(C)=O)c2c1 [Compound No. 98, 4-acetoxy-2,3-dimethyl-6-n-pentyl-quinoline] | – | – | > 80 |
| CCC(C)c1ccc2nc(C)c(C)c(OC(C)=O)c2c1 (stereo not shown) [compound 55] | A (protective value ≧80%) | A (protective value ≧80%) | – |
| CCCCc1cc(Cl)c2nc(C)c(C)c(OC(C)=O)c2c1 [Compound No. 216] | A (protective value ≧80%) | B (protective value 50 to 79%) | – |
| CC(=O)Oc1c(C)c(C)nc2c(C)cc(C)cc12 [Compound No. 262] | B (protective value 50 to 79%) | – | – |
| CCC(C)c1ccc2nc(C)c(C)c(OC(=O)c3ccc(OC)cc3)c2c1 (stereo not shown) [compound 62] | A (protective value ≧80%) | – | – |
| CCc1ccc2nc(C)c(C)c(O)c2c1 [Compound No. 9] | A (protective value ≧80%) | – | – |

| SMILES | rank (control effect, protective value from lesion number) (Pyricularia oryzae) | rank (control effect, protective value from disease severity) (Sphaerotheca fuliginea) | pest or weed control at 100 ppm (Pyricularia oryzae) [%] |
| --- | --- | --- | --- |
| CCCCc1ccc2nc(C)c(CCC)c(OC(C)=O)c2c1 [compound 45] | A (protective value ≧80%) | B (protective value 50 to 79%) | – |
| CCCCc1ccc2nc(CC)c(C)c(OC(C)=O)c2c1 [compound 47] | A (protective value ≧80%) | – | – |
| Cc1nc2ccc(C(F)(F)F)cc2c(O)c1C [Compound No. 131] | B (protective value 50 to 79%) | – | – |
| CCCCc1ccc2nc(C)c(CCCC)c(OC(C)=O)c2c1 [compound 46] | A (protective value ≧80%) | – | – |
| CCC(C)c1ccc2nc(C)c(C)c(O)c2c1 (stereo not shown) [compound 54] | A (protective value ≧80%) | – | – |
| CC(=O)Oc1c(C)c(C)nc2ccc(C)cc12 [Compound No. 2] | B (protective value 50 to 79%) | – | – |
| CCc1ccc2c(OC(C)=O)c(C)c(C)nc2c1 [compound 183] | B (protective value 50 to 79%) | – | – |
| CCC(C)c1cc(OC)c2nc(C)c(C)c(OC(C)=O)c2c1 (stereo not shown) [Compound No. 220, 4-acetoxy-6-s-butyl-8-methoxy-2,3-dimethylquinoline] | – | – | > 80 |
| CC(=O)Oc1c(C)c(C)nc2c(C)cc(C3CCCC3)cc12 [Compound No. 352, 4-Acetoxy-6-c-pentyl-8-methyl-2,3-dimethylquinoline] | A (protective value ≧80%) | – | – |
| CCCCCCCCc1ccc2nc(C)c(C)c(O)c2c1 [Compound No. 125] | B (protective value 50 to 79%) | – | – |
| CCCCCC(=O)Oc1c(C)c(C)nc2ccc(C(C)CC)cc12 (stereo not shown) [compound 173] | A (protective value ≧80%) | – | – |
| CC=C(C)c1ccc2nc(C)c(C)c(O)c2c1 [compound 199] | A (protective value ≧80%) | – | – |
| CCC(C)c1cc(F)c2nc(C)c(C)c(OC(C)=O)c2c1 (stereo not shown) [Compound No. 212, 4-acetoxy-6-s-butyl-8-fluoro-2,3-dimethylquinoline] | – | – | > 80 |
| CCC(C)c1ccc2nc(C)c(C)c(OC(=O)C3CCCCC3)c2c1 (stereo not shown) [compound 170] | A (protective value ≧80%) | – | – |
| Cc1nc2ccc(Br)c(C)c2c(O)c1C [compound 191] | A (protective value ≧80%) | – | – |
| CCCc1ccc2nc(C)c(C)c(OC(C)=O)c2c1 [compound 14] | A (protective value ≧80%) | – | – |
| CC=C(C)c1cc(C)c2nc(C)c(C)c(OC(C)=O)c2c1 [Compound No. 360, 4-acetoxy-6-(2-buten-2-yl)-2,3,8-trimethylquinoline] | – | – | > 80 |
| CCC(C)c1ccc2nc(C)c(C)c(OC(=O)Oc3ccc(OC)cc3)c2c1 (stereo not shown) [compound 69] | A (protective value ≧80%) | – | – |
| CCc1cccc2nc(C)c(C)c(OC(C)=O)c12 [compound 182] | B (protective value 50 to 79%) | – | – |
| CCC(C)c1ccc2nc(C)c(C)c(OC(=O)Oc3ccc(Cl)cc3)c2c1 (stereo not shown) [compound 70] | A (protective value ≧80%) | – | – |
| Cc1cc2nc(C)c(C)c(O)c2cc1Br [compound 192] | A (protective value ≧80%) | – | – |

| SMILES | rank (control effect, protective value from lesion number) (Pyricularia oryzae) | rank (control effect, protective value from disease severity) (Sphaerotheca fuliginea) | pest or weed control at 100 ppm (Pyricularia oryzae) [%] |
| --- | --- | --- | --- |
| CCCCCCc1ccc2nc(C)c(C)c(O)c2c1 [Compound No. 107] | A (protective value ≧80%) | – | – |
| CC(=O)Oc1c(C)c(C)nc2c(C(C)C)cc(C(C)C)cc12 [Compound No. 274] | A (protective value ≧80%) | – | – |
| Cc1nc2c(F)cc(Br)cc2c(O)c1C [compound 193] | A (protective value ≧80%) | – | – |
| Cc1nc2ccc(C(C)(C)C)cc2c(O)c1C [compound 83] | A (protective value ≧80%) | – | – |
| CCC(C)c1ccc2nc(C)c(C)c(OC(=O)Cc3ccccc3)c2c1 (stereo not shown) [compound 172] | A (protective value ≧80%) | – | – |
| CC=C(C)c1ccc2nc(C)c(C)c(OC(C)=O)c2c1 [compound 200] | A (protective value ≧80%) | – | – |
| CCCc1ccc2nc(C)c(C)c(O)c2c1 [Compound No. 13] | A (protective value ≧80%) | – | – |
| Cc1nc2ccc(CC(C)C)cc2c(O)c1C [compound 92] | B (protective value 50 to 79%) | – | – |
| Cc1nc2ccc(OC(C)C)cc2c(O)c1C [compound 23] | B (protective value 50 to 79%) | – | – |
| CCCCc1ccc2nc(C)c(CC)c(OC(C)=O)c2c1 [compound 44] | A (protective value ≧80%) | – | – |
| CC(=O)Oc1c(C)c(C)nc2cc(C)c(Br)cc12 [compound 196] | – | A (protective value ≧80%) | – |
| CCCCCc1ccc2nc(C)c(C)c(O)c2c1 [Compound No. 97, 4-hydroxy-2,3-dimethyl-6-n-pentyl-quinoline] | – | – | 50 to 79 |
| CC=C(C)c1cc(F)c2nc(C)c(C)c(OC(C)=O)c2c1 [Compound No. 362, 4-acetoxy-6-(2-buten-2-yl)-8-fluoro-2,3-dimethylquinoline] | – | – | > 80 |
| CCCCCCCCc1ccc2nc(C)c(C)c(OC(C)=O)c2c1 [Compound No. 126] | A (protective value ≧80%) | – | – |
| CCCCCCCC(=O)Oc1c(C)c(C)nc2ccc(C(C)CC)cc12 (stereo not shown) [compound 180] | A (protective value ≧80%) | – | – |
| CCC(C)c1ccc2nc(C)c(C)c(OC(=O)c3ccc(Cl)cc3)c2c1 (stereo not shown) [compound 63] | A (protective value ≧80%) | – | – |
| CCC(C)c1ccc2nc(C)c(C)c(OC(=O)c3ccc([N+](=O)[O-])cc3)c2c1 (stereo not shown) [compound 171] | B (protective value 50 to 79%) | – | – |
| CCCCOC(=O)Oc1c(C)c(C)nc2ccc(C(C)CC)cc12 (stereo not shown) [compound 179] | A (protective value ≧80%) | – | – |
| Cc1nc2ccc(C3CCCCC3)cc2c(O)c1C [Compound No. 111] | B (protective value 50 to 79%) | – | – |
